According to the NIST ThermoML archive (doi:10.1016/j.jct.2014.06.023):
“And” between values parts separate entries of the source, which are not always exact repeats. Equal entries are not always repeated.

Conditions: Buoyancy - hydrostatic balance with magnetic suspension - one sinker

FCF [difluoromethane]
Conditions	mass density
215.35 K, 1103.8 kPa, Liquid	1230.26 kg/m3
215.35 K, 1325.8 kPa, Liquid	1230.63 kg/m3
215.36 K, 1538.7 kPa, Liquid	1230.95 kg/m3
215.36 K, 1697.9 kPa, Liquid	1231.2 kg/m3
215.37 K, 103.26 kPa, Liquid	1228.62 kg/m3
215.37 K, 297.95 kPa, Liquid	1228.9 kg/m3
215.37 K, 703.99 kPa, Liquid	1229.57 kg/m3
215.39 K, 1295 kPa, Liquid	1230.49 kg/m3
224.87 K, 174.37 kPa, Liquid	1202.55 kg/m3
224.87 K, 584.91 kPa, Liquid	1203.31 kg/m3
224.88 K, 1061.9 kPa, Liquid	1204.12 kg/m3
224.89 K, 1060.1 kPa, Liquid	1204.1 kg/m3
224.91 K, 1506.3 kPa, Liquid	1204.87 kg/m3
234.46 K, 1590 kPa, Liquid	1178.28 kg/m3
234.51 K, 797.4 kPa, Liquid	1176.49 kg/m3
234.52 K, 405.74 kPa, Liquid	1175.67 kg/m3
234.55 K, 274.67 kPa, Liquid	1175.3 kg/m3
234.56 K, 1164.8 kPa, Liquid	1177.09 kg/m3
235.12 K, 296.35 kPa, Liquid	1173.64 kg/m3
235.12 K, 647.72 kPa, Liquid	1174.42 kg/m3
235.12 K, 648.42 kPa, Liquid	1174.42 kg/m3
235.12 K, 1119.6 kPa, Liquid	1175.37 kg/m3
235.12 K, 1629.1 kPa, Liquid	1176.43 kg/m3
235.13 K, 296.36 kPa, Liquid	1173.65 kg/m3
235.13 K, 1583.2 kPa, Liquid	1176.31 kg/m3
235.14 K, 1742.1 kPa, Liquid	1176.61 kg/m3
244.28 K, 721.81 kPa, Liquid	1147.83 kg/m3
244.28 K, 1218.8 kPa, Liquid	1148.97 kg/m3
244.29 K, 432.84 kPa, Liquid	1147.12 kg/m3
244.29 K, 1506.2 kPa, Liquid	1149.63 kg/m3
244.3 K, 1507.8 kPa, Liquid	1149.6 kg/m3
244.89 K, 745.03 kPa, Liquid	1145.98 kg/m3
244.89 K, 1636.6 kPa, Liquid	1148.09 kg/m3
244.9 K, 364.35 kPa, Liquid	1145.04 kg/m3
244.9 K, 1266.5 kPa, Liquid	1147.19 kg/m3
244.9 K, 1785 kPa, Liquid	1148.39 kg/m3
244.91 K, 1786.1 kPa, Liquid	1148.39 kg/m3
254.08 K, 382.25 kPa, Gas	10.3656 kg/m3
254.09 K, 214.16 kPa, Gas	5.5491 kg/m3
254.09 K, 313.9 kPa, Gas	8.3508 kg/m3
254.1 K, 104.12 kPa, Gas	2.6275 kg/m3
254.65 K, 795.59 kPa, Liquid	1116.29 kg/m3
254.65 K, 1111.6 kPa, Liquid	1117.17 kg/m3
254.65 K, 1794.7 kPa, Liquid	1119.02 kg/m3
254.66 K, 487.53 kPa, Liquid	1115.4 kg/m3
254.66 K, 1451 kPa, Liquid	1118.05 kg/m3
254.66 K, 1795.2 kPa, Liquid	1119 kg/m3
254.67 K, 1113.8 kPa, Liquid	1117.12 kg/m3
254.67 K, 1449.1 kPa, Liquid	1118.02 kg/m3
263.88 K, 107.72 kPa, Gas	2.6075 kg/m3
263.88 K, 204.78 kPa, Gas	5.0609 kg/m3
263.88 K, 306.27 kPa, Gas	7.74 kg/m3
263.88 K, 401.96 kPa, Gas	10.3885 kg/m3
263.88 K, 506.07 kPa, Gas	13.4247 kg/m3
263.88 K, 571.82 kPa, Gas	15.4369 kg/m3
263.89 K, 71.43 kPa, Gas	1.7159 kg/m3
264.46 K, 1262.6 kPa, Liquid	1086.13 kg/m3
264.46 K, 1771.5 kPa, Liquid	1087.75 kg/m3
264.47 K, 883.24 kPa, Liquid	1084.88 kg/m3
264.47 K, 1555.9 kPa, Liquid	1087.04 kg/m3
264.47 K, 1797.3 kPa, Liquid	1087.79 kg/m3
264.47 K, 1799.4 kPa, Liquid	1087.82 kg/m3
264.48 K, 882.25 kPa, Liquid	1084.85 kg/m3
264.48 K, 1561.7 kPa, Liquid	1087.04 kg/m3
264.49 K, 616.31 kPa, Liquid	1083.92 kg/m3
273.73 K, 101.73 kPa, Gas	2.3681 kg/m3
273.73 K, 312.85 kPa, Gas	7.5636 kg/m3
273.73 K, 513.88 kPa, Gas	12.9426 kg/m3
273.73 K, 711.85 kPa, Gas	18.7582 kg/m3
273.73 K, 817.04 kPa, Gas	22.1108 kg/m3
273.74 K, 224.38 kPa, Gas	5.3352 kg/m3
273.74 K, 416.77 kPa, Gas	10.2856 kg/m3
273.74 K, 614.63 kPa, Gas	15.8288 kg/m3
273.74 K, 771.81 kPa, Gas	20.6433 kg/m3
273.74 K, 824.1 kPa, Gas	22.3391 kg/m3
273.74 K, 876.3 kPa, Liquid	1053.21 kg/m3
273.74 K, 1101.1 kPa, Liquid	1054.06 kg/m3
273.75 K, 1351.5 kPa, Liquid	1054.99 kg/m3
273.76 K, 1582.2 kPa, Liquid	1055.81 kg/m3
283.52 K, 412.99 kPa, Gas	9.7269 kg/m3
283.52 K, 614.51 kPa, Gas	15.0118 kg/m3
283.52 K, 710.61 kPa, Gas	17.6856 kg/m3
283.53 K, 101.75 kPa, Gas	2.2806 kg/m3
283.53 K, 213.32 kPa, Gas	4.8632 kg/m3
283.53 K, 312.42 kPa, Gas	7.2368 kg/m3
283.53 K, 812.63 kPa, Gas	20.6499 kg/m3
283.54 K, 502.33 kPa, Gas	12.0197 kg/m3
283.54 K, 1013.2 kPa, Gas	26.9253 kg/m3 and 26.9235 kg/m3
283.55 K, 911.64 kPa, Gas	23.6652 kg/m3
283.55 K, 1562.5 kPa, Liquid	1020.09 kg/m3
283.56 K, 1156 kPa, Liquid	1018.14 kg/m3
283.56 K, 1382.8 kPa, Liquid	1019.19 kg/m3
293.32 K, 107.46 kPa, Gas	2.3235 kg/m3
293.32 K, 432.29 kPa, Gas	9.7863 kg/m3
293.32 K, 546.17 kPa, Gas	12.5808 kg/m3
293.32 K, 656.65 kPa, Gas	15.3945 kg/m3
293.33 K, 1265.1 kPa, Gas	33.2531 kg/m3
293.33 K, 1397.3 kPa, Gas	37.8678 kg/m3
293.33 K, 2143.9 kPa, Liquid	984.45 kg/m3
293.34 K, 760.28 kPa, Gas	18.1362 kg/m3
293.34 K, 866.25 kPa, Gas	21.0499 kg/m3
293.34 K, 968.81 kPa, Gas	23.9856 kg/m3
293.34 K, 1066.3 kPa, Gas	26.9025 kg/m3
293.34 K, 1161.5 kPa, Gas	29.864 kg/m3
293.34 K, 1757.2 kPa, Liquid	982.24 kg/m3
293.35 K, 1537.9 kPa, Liquid	980.97 kg/m3
293.37 K, 323.39 kPa, Gas	7.2059 kg/m3
293.38 K, 219.26 kPa, Gas	4.8156 kg/m3
